This passage reports Activity results from ChEMBL document CHEMBL3352442, “Synthesis and structure-activity relationships study of dithiolethiones as inducers of glutathione in the SH-SY5Y neuroblastoma cell line” (Bioorg Med Chem Lett, 2014).

Active and inactive are the calls of the source. No cut-off for these calls is given here.

The subject of series [1] is SH-SY5Y. Kind of series: Induction of glutathione in human SH-SY5Y cells at 100 uM incubated for 24 hrs by GSH/GSSG Glo assay. It counts as functional.
Series [2] can be described thus: (§1) Neuroprotection against 25 uM 6-hydroxydopamine-induced neurotoxicity in human SH-SY5Y cells assessed as cell viability at 100 uM pre-incubated for 24 hrs before 6-hydroxydopamine challenge. The format is functional.
The nature of series [3]: Neuroprotection against 50 uM 6-hydroxydopamine-induced neurotoxicity in human SH-SY5Y cells assessed as cell viability at 100 uM pre-incubated for 24 hrs before 6-hydroxydopamine challenge. It counts as functional.
The nature of series [4]: Toxicity against human SH-SY5Y cells at 100 uM incubated for 24 hrs. It counts as cell-based.
Series [5] deals with SH-SY5Y. The series is described as §1. The format is functional.

Regarding `COc1ccc(-c2cc(=S)ss2)cc1`, the result in the series with SH-SY5Y [1] was inactive.
For the molecule `S=c1sscc1-c1ccccc1`, the outcome in the series on SH-SY5Y [1] was Active.
Turning to `S=c1cc(C2CC2)ss1`, in the series with SH-SY5Y [1], the outcome was Active.
`S=c1ssc2c1CCC2`: the Activity is 41% in series [2], 183% in the series with SH-SY5Y [1], 22% in series [3] and “Non-toxic” in series [4].
On to `S=c1cc(-c2ccc(Cl)cc2)ss1`, for which the result in the series on SH-SY5Y [5] and in the series with SH-SY5Y [1] was inactive.
For the molecule `S=c1ccss1` [DITHIOLETHIONE], the Activity in series [2] is 52%; in the series on SH-SY5Y [1], 215%; in series [3], 47%; in series [4], “Non-toxic”.
For the molecule `S=c1sscc1-c1ccc(Cl)cc1`, in the series on SH-SY5Y [1], the result was Active.
`S=c1ssc2c1CCCC2` had an Activity in the series on SH-SY5Y [1] of 98%.
Same read-out and setting: as for `CCc1cc(=S)ss1`, the entry is “Active”; as for `COc1ccc(-c2cssc2=S)cc1`, “Active”.
With `Cc1ssc(=S)c1Cl`, the Activity in series [2] is on record as 52%; with SH-SY5Y [1], 175%; in series [3] it was 33%; in series [4] it was “Non-toxic”.
On to `Oc1ccc(-c2cc(=S)ss2)cc1`, for which the outcome with SH-SY5Y [1] was inactive.
For `FC(F)(F)Cc1cssc1=S`, in the series on SH-SY5Y [1], the outcome was Active.
